Data as given in PubChem BioAssay (NCI).
Where “and” joins values, the source holds several entries; their conditions need not be identical. Equal entries are not always repeated.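 Growth conditions: 96-well plates. Treatment: test compound, 48 hours, 5 concentrations. Analysis: linear interpolation between bracketing concentrations; unreached endpoints set to highest concentration. GI50 is the concentration that inhibits growth by half. At the TGI there is no net growth.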

Tests used:
Test in all cases: NCI anticancer screen, dose series, 48 h
HL-60(TB) leukemia = system: HL-60(TB) leukemia
A549 NSCLC = system: A549 NSCLC
SN12C renal = system: SN12C renal
HCT-116 colon = system: HCT-116 colon
U251 CNS = system: U251 CNS
NCI-H23 lung = system: NCI-H23 lung
SK-OV-3 ovarian = system: SK-OV-3 ovarian
SK-MEL-28 melanoma = system: SK-MEL-28 melanoma
NCI-H460 lung = system: NCI-H460 lung
TK-10 renal = system: TK-10 renal

| Structure (SMILES) | TGI (HL-60(TB) leukemia) | TGI (A549 NSCLC) | TGI (SN12C renal) | TGI (HCT-116 colon) | TGI (U251 CNS) | TGI (NCI-H23 lung) | TGI (SK-OV-3 ovarian) | TGI (SK-MEL-28 melanoma) | TGI (NCI-H460 lung) | TGI (TK-10 renal) | GI50 (NCI-H460 lung) | GI50 (A549 NSCLC) | GI50 (SN12C renal) | GI50 (HCT-116 colon) | GI50 (TK-10 renal) | GI50 (U251 CNS) | GI50 (NCI-H23 lung) | GI50 (SK-OV-3 ovarian) | GI50 (SK-MEL-28 melanoma) | GI50 (HL-60(TB) leukemia) |
| --- | --- | --- | --- | --- | --- | --- | --- | --- | --- | --- | --- | --- | --- | --- | --- | --- | --- | --- | --- | --- |
| Nc1nc2c3nc(Nc4ccccc4)sc3nc(=O)n2c2sc(Nc3ccccc3)nc12 | > 100 µM | > 100 µM | > 100 µM | > 100 µM | > 100 µM | > 100 µM | > 100 µM | > 100 µM | – | – | – | – | – | – | – | – | – | – | – | – |
| Cc1cc(C)cc(NC(N)=S)c1 | > 100 µM | > 100 µM | > 100 µM | > 100 µM | > 100 µM | > 100 µM | – | > 100 µM | > 100 µM | > 100 µM | – | – | – | – | – | – | – | – | – | – |
| N#CC1CC2(CCN1C(=O)c1ccccc1)OCCO2 (stereo unspecified) | > 100 µM | > 100 µM | > 100 µM | > 100 µM | > 100 µM | > 100 µM | > 100 µM | – | > 100 µM | > 100 µM | – | – | – | – | – | – | – | – | – | – |
| COC(=O)CC[C@H](Cc1ccccc1)NC(=O)c1csc([C@@H](C[C@H](C(C)C)N(C)C(=O)[C@@H](NC(=O)[C@H]2CCCCN2C)C(C)C)OC(C)=O)n1 | – | > 25 µM | > 25 µM | > 25 µM | > 25 µM | > 25 µM | > 25 µM | > 25 µM | > 25 µM | > 25 µM | < 2.5 nM | 7.44 nM | < 2.5 nM | < 2.5 nM | > 25 µM | < 2.5 nM | 5.15 nM | < 0.0025 µM | > 25000 nM | – |
| CCOC(=O)c1c2c(n3ccccc13)C(=O)c1ncccc1C2=O | 1.09 µM | 8.01 µM | 5.85 µM | 2.33 µM | 1.96 µM | 5.75 µM | 22.9 µM | 33.3 µM | – | 20.2 µM | – | 323 nM | 34.8 nM | 42.4 nM | 0.354 µM | 32.9 nM | 61.7 nM | 0.0683 µM | 134 nM | 78.4 nM |
| COC(=O)[C@@H](C)C[C@H](Cc1ccccc1)NC(=O)c1csc([C@@H](C[C@H](C(C)C)N(C)C(=O)[C@@H](NC(=O)[C@H]2CCCCN2C)C2CC2)OC(C)=O)n1 | 0.000839 µM and < 0.00165 µM | > 16.5 µM | > 16.5 µM | 0.011 µM | > 16.5 µM | > 16.5 µM | > 16.5 µM | – | > 16.5 µM | – | 0.362 nM and 1.65 nM | 2.7 nM and 1.65 nM | 1.15 nM and 1.65 nM | 0.43 nM and 1.65 nM | – | 0.457 nM and 1.65 nM | 0.532 nM and 1.65 nM | 0.000604 µM and 0.00165 µM | 0.934 nM | 0.235 nM and < 1.65 nM |
| CCOc1ccc2nc(NC(=O)C(=O)C(c3cnc4ccccc4n3)[N+](=O)[O-])sc2c1 (stereo unspecified) | > 100 µM | > 100 µM | > 100 µM | > 100 µM | – | > 100 µM | > 100 µM | – | > 100 µM | > 100 µM | – | – | – | – | – | – | – | – | – | – |
| CN(C)c1ccc(/C=c2\sc3nc4ccccc4n3c2=O)cc1 | > 100 µM | > 100 µM | > 100 µM | > 100 µM | > 100 µM | > 100 µM | – | > 100 µM | > 100 µM | > 100 µM | – | – | – | – | – | – | – | – | – | – |
| CC(C)OP(=O)(NC(=S)c1ccccc1)OC(C)C | – | > 100 µM | > 100 µM | > 100 µM | > 100 µM | > 100 µM | > 100 µM | > 100 µM | > 100 µM | > 100 µM | – | – | – | – | – | – | – | – | – | – |
| Cc1ccc(Cl)cc1NC(=O)c1sc2nc3c(cc2c1N)C(=O)CCC3 | – | > 100 µM | – | > 100 µM | > 100 µM | – | > 100 µM | > 100 µM | > 100 µM | > 100 µM | 3730 nM | 3850 nM | – | 5970 nM | 8.99 µM | 4450 nM | – | 5.26 µM | > 100000 nM | – |
| CCOC(=O)c1[nH]c(COC(C)=O)c2c1CCCCCCCCCC2 | > 100 µM | > 100 µM | > 100 µM | > 100 µM | > 100 µM | > 100 µM | > 100 µM | – | > 100 µM | > 100 µM | – | – | – | – | – | – | – | – | – | – |
| S=P(N1CC1)(N1CC1)N1CC1 | – | – | – | 46.1 µM and 317 µM and 367 µM | – | – | 47.2 µM and 406 µM and 296 µM | 72.6 µM and 574 µM | 31.7 µM and 195 µM | > 95.3 µM and 877 µM and 522 µM | 588 nM | 10200 nM and 84000 nM | – | 21200 nM and 171000 nM | 44.5 µM and 127 µM | – | – | 16 µM and 143 µM | 34700 nM | 942 nM and 1950 nM |
| COc1ccccc1NC(=O)CC(=O)N/N=C/c1ccc(N(CCC#N)S(=O)(=O)c2ccccc2)cc1 | > 100 µM | > 100 µM | – | > 100 µM | > 100 µM | > 100 µM | – | > 100 µM | > 100 µM | > 100 µM | – | – | – | – | – | – | – | – | – | – |
| COc1cc2c(cc1OC)/C(=C\c1ccccc1N)C(=O)OC2 | 17.6 µM | 60.1 µM | 31.4 µM | – | 32.6 µM | 42.7 µM | 55.7 µM | 41.5 µM | 33.5 µM | 35.2 µM | – | – | – | – | – | – | – | – | – | – |
| Cc1cc2c(C)nn(Cc3ccc(Cl)cc3)c2c(C#N)c1C | > 100 µM | > 100 µM | > 100 µM | > 100 µM | > 100 µM | > 100 µM | > 100 µM | > 100 µM | – | > 100 µM | – | – | – | – | – | – | – | – | – | – |
| Cc1cn(-c2cc(NC(=O)c3ccc(C)c(Nc4nccc(-c5cccnc5)n4)c3)cc(C(F)(F)F)c2)cn1 | – | > 10 µM and 7.76 µM | > 10 µM and 29 µM | > 10 µM and 7.79 µM | > 10 µM and 7.32 µM | > 10 µM and 30 µM | > 10 µM and 11.3 µM | 5.97 µM and 3.18 µM | > 10 µM and 10.7 µM | > 10 µM and 9.38 µM | 3310 nM and 2330 nM | 5310 nM and 2680 nM | > 10000 nM and 13000 nM | 4260 nM and 2060 nM | 5.26 µM and 4.07 µM | 2970 nM and 2470 nM | 7350 nM and 6500 nM | > 10 µM and 3.91 µM | 1810 nM and 1400 nM | – |
| CCN(CC)c1ccc(N=Nc2ccc(-c3nc4ccc[n+](C)c4o3)cc2)cc1 | 7.32 µM | 27.1 µM | 45.5 µM | 16.3 µM | 16.6 µM | 28.6 µM | 34.1 µM | – | 29.2 µM | 24.7 µM | – | – | – | – | – | – | – | – | – | – |
| CCN(CC)C(=O)C(C)n1cc(C)c(=O)[nH]c1=O (stereo unspecified) | > 100 µM | > 100 µM | > 100 µM | > 100 µM | > 100 µM | > 100 µM | – | > 100 µM | > 100 µM | > 100 µM | – | – | – | – | – | – | – | – | – | – |
| N#CC1CCCCCCCCCCC(=O)N(CCCl)C1=O (stereo unspecified) | > 100 µM | > 100 µM | > 100 µM | – | > 100 µM | > 100 µM | > 100 µM | > 100 µM | > 100 µM | > 100 µM | – | – | – | – | – | – | – | – | – | – |
